Legend:
Format in all cases: in vivo
[1] = system: barnyardgrass (Echinochloa crus-galli); test: Test A preemergence, visual injury rating; settings: 1000 g ai/ha, 0 to 100 scale (0 no effect, 100 complete control)
Summary of the method: (§1)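 Compounds in non-phytotoxic solvent with surfactant applied as soil spray preemergence, or postemergence to plants 2-10 cm at one- to two-leaf stage, in loam/sand. After approximately 10 days in greenhouse, injury rated visually versus untreated controls, 0 (no effect) to 100 (complete control).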

corn (Zea mays) [2] = test: Test A preemergence, visual injury rating; settings: 1000 g ai/ha, 0 to 100 scale (0 no effect, 100 complete control)
Summary of the method: as §1

[3] = system: giant foxtail (Setaria faberii); test: Test A preemergence, visual injury rating; settings: 1000 g ai/ha, 0 to 100 scale (0 no effect, 100 complete control)
Summary of the method: as §1

[4] = system: large (Lg) crabgrass (Digitaria sanguinalis); test: Test A preemergence, visual injury rating; settings: 1000 g ai/ha, 0 to 100 scale (0 no effect, 100 complete control)
Summary of the method: as §1

[5] = system: pigweed (Amaranthus retroflexus); test: Test A preemergence, visual injury rating; settings: 1000 g ai/ha, 0 to 100 scale (0 no effect, 100 complete control)
Summary of the method: as §1

[6] = system: velvetleaf (Abutilon theophrasti); test: Test A preemergence, visual injury rating; settings: 1000 g ai/ha, 0 to 100 scale (0 no effect, 100 complete control)
Summary of the method: as §1

[7] = system: wheat (Triticum aestivum); test: Test A preemergence, visual injury rating; settings: 1000 g ai/ha, 0 to 100 scale (0 no effect, 100 complete control)
Summary of the method: as §1

[8] = system: barnyardgrass (Echinochloa crus-galli); test: Test A postemergence, visual injury rating; settings: 1000 g ai/ha, 0 is no effect, 100 is complete control
Summary of the method: as §1

corn (Zea mays) [9] = test: Test A postemergence, visual injury rating; settings: 1000 g ai/ha, 0 is no effect, 100 is complete control
Summary of the method: as §1

[10] = system: giant foxtail (Setaria faberii); test: Test A postemergence, visual injury rating; settings: 1000 g ai/ha, 0 is no effect, 100 is complete control
Summary of the method: as §1

[11] = system: large (Lg) crabgrass (Digitaria sanguinalis); test: Test A postemergence, visual injury rating; settings: 1000 g ai/ha, 0 is no effect, 100 is complete control
Summary of the method: as §1

[12] = system: pigweed (Amaranthus retroflexus); test: Test A postemergence, visual injury rating; settings: 1000 g ai/ha, 0 is no effect, 100 is complete control
Summary of the method: as §1

[13] = system: velvetleaf (Abutilon theophrasti); test: Test A postemergence, visual injury rating; settings: 1000 g ai/ha, 0 is no effect, 100 is complete control
Summary of the method: as §1

[14] = system: wheat (Triticum aestivum); test: Test A postemergence, visual injury rating; settings: 1000 g ai/ha, 0 is no effect, 100 is complete control
Summary of the method: as §1

[15] = system: barnyardgrass (Echinochloa crus-galli); test: Test B flooded paddy test, plant response rating; settings: 250 g ai/ha; Flood; scale of 0 to 100 where 0 is no effect and 100 is complete control; 13 to 15 days
Summary of the method: (§2)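 Visual injury ratings against untreated controls, taken 13 to 15 days after compound was added to paddy water standing 3 cm above the soil.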

[16] = system: ducksalad (Heteranthera limosa); test: Test B flooded paddy test, plant response rating; settings: 250 g ai/ha; Flood; scale of 0 to 100 where 0 is no effect and 100 is complete control; 13 to 15 days
Summary of the method: as §2

rice (Oryza sativa) = test: Test B flooded paddy test, plant response rating; settings: 250 g ai/ha; Flood; scale of 0 to 100 where 0 is no effect and 100 is complete control; 13 to 15 days
Summary of the method: as §2

[17] = system: sedge, umbrella (small-flower umbrella sedge, Cyperus difformis); test: Test B flooded paddy test, plant response rating; settings: 250 g ai/ha; Flood; scale of 0 to 100 where 0 is no effect and 100 is complete control; 13 to 15 days
Summary of the method: as §2

| Structure (SMILES) | Barnyardgrass plant response rating [1] | Corn plant response rating (corn (Zea mays) [2]) | Foxtail, Giant plant response rating [3] | Crabgrass, Large plant response rating [4] | Pigweed plant response rating [5] | Velvetleaf plant response rating [6] | Wheat plant response rating [7] | Barnyardgrass plant response rating (0 to 100 scale) [8] | Corn plant response rating (0 to 100 scale) (corn (Zea mays) [9]) | Foxtail, Giant plant response rating (0 to 100 scale) [10] | Crabgrass, Large plant response rating (0 to 100 scale) [11] | Pigweed plant response rating (0 to 100 scale) [12] | Velvetleaf plant response rating (0 to 100 scale) [13] | Wheat plant response rating (0 to 100 scale) [14] | Plant response rating, Barnyardgrass [15] | Plant response rating, Ducksalad [16] | Plant response rating, Rice (rice (Oryza sativa)) | Plant response rating, Sedge, Umbrella [17] |
| --- | --- | --- | --- | --- | --- | --- | --- | --- | --- | --- | --- | --- | --- | --- | --- | --- | --- | --- |
| CON=C(C)c1ccccc1Oc1ncc(Cl)cn1 [Compound 55] | 0 | 0 | 0 | 0 | 0 | 0 | 0 | 0 | 0 | 10 | 0 | 0 | 10 | 0 | – | – | – | – |
| CC(=NOC(C)C)c1ccccc1Oc1ncc(Cl)cn1 [Compound 56] | 90 | 0 | 100 | 100 | 100 | 90 | 0 | 50 | 30 | 70 | 40 | 60 | 100 | 10 | 0 | 0 | 0 | 0 |

Source: patent US11053204B2, “Pyrimidinyloxy benzene derivatives as herbicides” (FMC Corporation, priority 2015, dated 2021)
